Conditions in all cases: stereoisomer not certain
The nature of series [1]: RP, Waters ACQUITY UPLC BEH C18, 100 × 1 mm, 1.7 µm, 50 °C, 0.3 mL/min, estimated dead time 0.17 min; A: water + 10 mM ammonium bicarbonate; B: 10% water + 90% methanol + 10 mM ammonium bicarbonate; gradient (min/%B) 0/0 15/100 21/100 22/0 30/0.
Series [2] is described as follows: RP, Phenomenex Synergi Polar-RP, 100 × 3 mm, 2.5 µm, 40 °C, 0.4 mL/min, estimated dead time 1.1 min; A: water + 1 mM ammonium fluoride; B: methanol + 1 mM ammonium fluoride; C: acetonitrile; D: 50% isopropanol + 50% acetone; gradient (min/%B/%C/%D) 0/5/0/0 2/5/0/0 8/95/0/0 12/80/15/0 19/25/70/0 19.5/0/25/70 21.5/0/25/70 22.5/0/25/0 23/5/0/0.
The nature of series [3]: RP, Waters ACQUITY UPLC BEH C18, 100 × 1 mm, 1.7 µm, 50 °C, 0.3 mL/min, estimated dead time 0.17 min; A: water + 0.1% formic acid + 20 mM ammonium formate; B: methanol + 0.1% formic acid + 20 mM ammonium formate; gradient (min/%B) 0/0 15/100 21/100 22/0 30/0.

Counter-ions that a name gives are not always drawn.

As to `NS(=O)(=O)c1cc2c(cc1Cl)NCNS2(=O)=O` [Hydrochlorothiazide], the LC retention time in series [1] was 4.67 min; in series [2] it was 7.62 min; in series [3] it was 5.2 min.
For `O=C(O)C(F)(F)C(F)(F)C(F)(F)C(F)(F)C(F)(F)C(F)(F)C(F)(F)C(F)(F)C(F)(F)C(F)(F)C(F)(F)C(F)(F)C(F)(F)F` [Perfluorotetradecanoic acid] the same measures were 17.7 min, 9.93 min and 17.7 min.
Take `CC(C)(c1ccccc1)c1ccc(O)cc1` [4-Cumylphenol]: the LC retention time in series [1] is 15.7 min; in series [2], 11.1 min.
Consider `CC(Oc1ccc(Cl)cc1Cl)C(=O)O` (stereo unspecified) [Dichlorprop], for which the LC retention time in series [1] is 11.8 min; in series [2], 8.48 min; in series [3] it was 14 min.
For the compound `Oc1ccccc1-c1ccccc1` [2-Phenylphenol], the LC retention time is 13.9 min in series [1] and 9.93 min in series [2].
`CCOC(=O)c1ccc(O)cc1` [Ethylparaben]: the LC retention time in series [1] was 11.1 min; in series [2], 9.81 min; in series [3] it was 11.6 min.
For `CC(C)(O)c1ccccc1CCC(SCC1(CC(=O)O)CC1)c1cccc(C=Cc2ccc3ccc(Cl)cc3n2)c1` (stereo unspecified) [Montelukast], the LC retention time in series [1] is 16.6 min; in series [2], 11.9 min.
For `N#Cc1c(O)c(Cl)c(Cl)c(C#N)c1Cl` [Chlorothalonil-4-hydroxy], the LC retention time was 11.8 min in series [1], 9.06 min in series [2] and 12.3 min in series [3].
In the same order, the values of `CCCCCCCCCCCCCCOS(=O)(=O)O` [Tetradecylsulfate] are 17.4 min, 9.97 min and 17.2 min.
In the same order, the values of `O=S(=O)(O)c1ccc2ccccc2c1` [2-Naphthalene sulfonic acid] are 8.6 min, 7.25 min and 8.66 min.
With `CCCCCCCCCc1ccc(O)cc1` [4-n-Nonylphenol], the results for the LC retention time in series [1] and in series [2] were 18.1 min and 11.6 min, respectively.
In the case of `N#Cc1nn(-c2c(Cl)cc(C(F)(F)F)cc2Cl)c(N)c1C(F)(F)F` [Fipronil desulfinyl], the LC retention time is 15.4 min in series [1], 10.9 min in series [2] and 15.1 min in series [3].
For `Oc1ccc(Cl)cc1Cc1cc(Cl)ccc1O` [Dichlorophen] the same measures were 15.1 min, 10.9 min and 15.2 min.
For `CC(C)Cc1ccc(C(C)C(=O)O)cc1` (stereo unspecified) [Ibuprofen], the LC retention time in series [2] was 10.3 min; in series [3], 14.1 min.
Turning to `Oc1ccc(Cc2ccc(O)cc2)cc1` [Bisphenol F], the LC retention time is 11.9 min in series [1] and 9.94 min in series [2].
On to `CCC(C)C(=O)OC1CC(O)C=C2C=CC(C)C(CCC(O)CC(O)CC(=O)O)C21` (stereo unspecified) [Pravastatin], for which the LC retention time is 12.1 min in series [1], 9.42 min in series [2] and 13.3 min in series [3].
`CCCCOC(=O)c1ccc(O)cc1` [Butylparaben]: the LC retention time in series [1] is 14 min; in series [2], 10.6 min.
On to `NS(=O)(=O)C(F)(F)C(F)(F)C(F)(F)C(F)(F)C(F)(F)C(F)(F)C(F)(F)C(F)(F)F` [Perfluorooctanesulfonamide], for which the LC retention time is 15.7 min in series [1], 10.6 min in series [2] and 16.5 min in series [3].
For the compound `CCCCCCCCCCOS(=O)(=O)O` [Decyl sulfate], the LC retention time was 15.1 min in series [1], 9.26 min in series [2] and 14.8 min in series [3].
In the same order, the values of `O=C(O)C(F)(F)C(F)(F)C(F)(F)C(F)(F)C(F)(F)C(F)(F)C(F)(F)C(F)(F)C(F)(F)F` [Perfluorodecanoic acid] are 16.1 min, 9.39 min and 15.9 min.
Take `Cc1ccc(C(C)C)c(O)c1` [Thymol]: the LC retention time in series [1] is 14.7 min; in series [2], 10.6 min.
On to `COc1ccc2c(c1)c(CC(=O)O)c(C)n2C(=O)c1ccc(Cl)cc1` [Indometacin], for which the LC retention time is 10.5 min in series [2] and 15.4 min in series [3].
`Oc1ccc(Cl)cc1` [4-Chlorophenol]: the values for the LC retention time in series [1] and in series [2] were 11.3 min and 8.39 min, respectively.
For `Oc1ccc(Cl)cc1Cc1ccccc1` [Chlorophene] the same measures were 15.9 min and 11.2 min.
In the same order, the values of `O=S(=O)(O)C(F)(F)C(F)(F)C(F)(F)C(F)(F)C(F)(F)C(F)(F)C(F)(F)C(F)(F)F` [Perfluorooctanesulfonic acid] are 15.5 min and 9.25 min.
For `CCCc1cc(=O)[nH]c(=S)[nH]1` [6-Propyl-2-thiouracil], the LC retention time in series [2] is 8.14 min; in series [3], 7.69 min.
In the case of `CCc1cccc(C)c1N(C(=O)CS(=O)(=O)O)C(C)COC` (stereo unspecified) [Metolachlor ESA], the LC retention time in series [1] was 12.1 min; in series [2], 8.57 min.
In the same order, the values of `Cc1cc(O)ccc1Cl` [p-Chlorocresol] are 13 min and 8.57 min.
On to `O=c1[nH]cc(F)c(=O)[nH]1` [5-Fluorouracil], for which the LC retention time in series [2] was 2.09 min; in series [3], 7.72 min.
On to `Nc1ccc(S(=O)(=O)O)c(N)c1` [24-diaminobenzenesulfonic acid], for which the LC retention time in series [2] was 1.48 min.
Still for that read-out and setting: in the case of `Oc1cccc2n[nH]nc12` [4-Hydroxybenzotriazole] it was 7 min; in that of `CCc1cccc(C)c1N(C(=O)C(=O)O)C(C)COC` (stereo unspecified) [Metolachlor OA], 8.42 min.
On to `O=[N+]([O-])c1ccc(O)c([N+](=O)[O-])c1` [24-Dinitrophenol], for which the LC retention time in series [2] was 7.62 min.
On the same count and under the same terms, in the case of `CCC(=O)Nc1ccc(Cl)c(Cl)c1` [Propanil] it was 10.6 min.
On to `O=S(=O)(c1ccc(O)cc1)c1ccc(O)cc1` [Bisphenol S], for which the LC retention time in series [2] is 9.36 min.
As for `CC(C)(c1ccc(O)cc1)c1ccc(O)cc1` [Bisphenol A], the figures for the LC retention time in series [2] and in series [3] were 10.3 min and 18.3 min, respectively.
As for `CS(=O)(=O)c1ccc(C(=O)C2C(=O)CCCC2=O)c(Cl)c1` [Sulcotrione], the LC retention time in series [2] was 7.69 min.
The same measure, in the same setting: in the case of `N#Cc1cc(Br)c(O)c(Br)c1` [Bromoxynil] it was 8.68 min; in that of `O=C(O)Cc1ccc(S(=O)(=O)O)cc1` [(4-Sulfophenyl)acetic acid], 1.82 min.
On the same count and under the same terms, in the case of `O=c1c(-c2ccc(O)cc2)coc2cc(O)cc(O)c12` [Genistein] it was 10.3 min; in that of `NC(=O)c1ccccc1C(=O)O` [Phthalamic acid], 2.24 min.
Still for that read-out and setting: the value for `CCC1=C(C)CN(C(=O)NCCc2ccc(S(=O)(=O)NC(=O)NC3CCC(C)CC3)cc2)C1=O` (stereo unspecified) [Glimepiride] was 11.3 min; that for `O=S(=O)(O)c1nc2ccccc2s1` [2-Benzothiazolesulfonic acid] was 6.31 min.
